Results as given in article PMC2172902 (The Journal of Cell Biology, 2003).
Peptide text beside a SMILES is read from it. * marks the point of attachment. Cbz = O=C(OCc1ccccc1)*

Test system: DLD-1 cells
Assay: chromosome alignment in cultures treated with proteosome inhibitor
Type: cell-based, human
Conditions: control cultures, 20 μM

In the case of `CC(C)C[C@@H](C=O)NC(=O)[C@H](CC(C)C)NC(=O)[C@H](CC(C)C)NC(=O)OCc1ccccc1` [MG132] (Cbz-Leu-Leu-Leu-aldehyde), the proportion of metaphases is reported as ~66% and the proportion of prometaphases is reported as ~25%.
